# Experimental data published in PMC9101642 (Molecules, 2022).
# Like-named read-outs stand apart in the source and are kept apart here. Marks after values point to notes of the source that are not given here.
# Assays:
# ERβ = ERβ (Homo sapiens, UniProt Q92731); assay: Fluorescence polarization competition assay: antagonistic potency and relative binding affinity; conditions: log of % relative binding affinity, estradiol = 100%
# [1] = Lipophilicity by shake-flask method; conditions: n-octanol/phosphate buffer, pH 7.4
# [2] = Pharmacokinetics study, oral bioavailability; conditions: rat
# MCF-7 cell lines = assay: MTT antiproliferative assay; assay type: cell-based, human
# [3] = MTT antiproliferative assay (neutral control); conditions: human, MRC-5 lung fibroblast cells, MRC-5 (IC50 nM)
# MCF-7 cells = assay: Cell cycle distribution by flow cytometry; assay type: cell-based, human; conditions: 24 h
# [4] = system: MNU-induced breast cancer; assay: In vivo anticancer screening, MNU-induced mammary tumorigenesis; design: species or system female Wistar rats
# [5] = system: Ishikawa endometrial adenocarcinoma cells; assay: Antiproliferative assay; assay type: cell-based; conditions: Homo sapiens, growth inhibition
# [6] = system: progesterone receptor (PR); assay: ERα functional antagonism cell assay (PR as biomarker) in MCF-7; assay type: cell-based; conditions: Homo sapiens, MCF7; progesterone receptor as biomarker for ERα antagonism in MCF-7
# [7] = Serum biochemical markers after treatment of MNU-induced rats; assay type: in vivo, Wistar rats; design: TBC: unit not given here; conditions: for ALP (A/L) / ALT (A/L) / AST (U/L) / γ-GT (U/L): serum; for TBC: total bilirubin content
# Method: (§1) Rats were housed at 3 per cage and
# (§2) The breast cancer was induced after the MNU (Sigma Aldrich CAS No. 684-93-5) administration. An aqueous solution at a concentration of 10 mg/ml was made by wetting the NMU powder with 3% acetic acid and then dissolving it in 0.9% NaCl solution; a fresh solution was prepared for each injection. Rats were given intraperitoneal (i.p.) 50 mg/kg of MNU on the 50th day of age. Animals were divided into different groups with six animals in each group. Group I (intact control) received 0.9% NaCl solution.
# (§3) Groups II-IV and V-VII were introduced with MNU. Two weeks after MNU treatment, animals were treated orally with synthesized compounds and control substances (5 and 50 mg/kg, for groups II-IV and V-VII, respectively) by gavage once per day for six weeks. Animals in the intact control group and untreated MNU group were given vehicle (Tween 80) according to the experimental protocol. […]
# Upon finishing the treatment with synthesized compounds, animals were sacrificed, and plasma, serum, and liver samples were collected.
# Measurement of Serum Biochemical Markers
# The activities of AST and ALT on 340 nm, and ALP on 405 nm, were determined by UV-Vis kinetic methods according to recommendations of the Expert Panel of the IFCC (International Federation of Clinical Chemistry). The colorimetric methods were used for the determination of total bilirubin (Jendrassik-Grof 550 nm method). All kinetic and colorimetric measurements were recorded using a Perkin-Elmer Lambda 25 UV/Vis spectrophotometer. […]
# [8] = system: MNU-induced breast cancer tissue; assay: Histopathology of breast sections; assay type: in vivo, Wistar rats
# Description: The impact of selected leads on BC tissue was registered after their administration to experimental animals with MNU-induced BC (Figure 9 and Supplementary Material Figures S211–S218). […] In contrast to this, the administered leads were harmless in both concentrations, neutralizing the MNU-induced changes, judging by the lobuloalveolar units and cuboidal epithelial cells found (Figure 9C,D, and Supplementary Material Figures S214–S218). […]
# Histopathological Studies
# histopathological changes. […]
# MDA-MB-231 cell lines = assay: MTT antiproliferative assay; assay type: cell-based, human
# [9] = Liver oxidative stress markers after treatment of MNU-induced rats; assay type: in vivo, Wistar rats; design: CAT: unit not given here; conditions: liver; for CAT: catalase activity; for GSH: reduced glutathione; for SOD (U/mg): superoxide dismutase activity
# Method: as §1, §2, §3
# (§4) Upon finishing the treatment with synthesized compounds, animals were sacrificed, and plasma, serum, and liver samples were collected. […]
# Determination of Antioxidant Markers in Liver Homogenate
# Rat liver samples were homogenized in phosphate buffer (5 mM, pH = 7.4) to give a 10% (w/v) liver homogenate and then centrifuged at 4000 rpm for 15 min at 4°C. The supernatant of liver homogenate was used for the estimation of reduced glutathione (GSH) and catalase (CAT) levels by the colorimetric method. The contents of malondialdehyde (MDA) in the supernatant of the liver homogenates were determined using 1,1,3,3-tetraethoxypropane as standard. Total protein concentrations were determined according to the method of Lowry using bovine serum albumin as […]
# [10] = Plasma protein binding determination; assay type: in vitro ADME, rat; conditions: rat plasma, 37 °C, read-out: Rat PPB (%free)
# Method: as §1, §2, §3, §4
# Rat plasma containing either 5 or 50 mg/kg bwt of the tested compounds was incubated at 37°C upper reservoir of the washed Centri-free YM-30 ultrafiltration units (Millipore, Bedford, MA) and then centrifuged for 20 min at 2,000 g. Aliquots of the ultrafiltrates and unfiltered incubation mixtures were analyzed for the total protein concentration by the bicinchoninic acid assay for protein concentration (BCA assay; Pierce, Rockford, IL).
# [11] = system: MRC-5 human lung fibroblast cell lines
# ERα = molecular target: T1, ERα (Homo sapiens, UniProt P03372); assay: Fluorescence polarization competition assay: antagonistic potency and relative binding affinity; conditions: virtually screened NCI hits, Table S17; read-out: ERα (IC50)
# T1 sequence (P03372 1-595): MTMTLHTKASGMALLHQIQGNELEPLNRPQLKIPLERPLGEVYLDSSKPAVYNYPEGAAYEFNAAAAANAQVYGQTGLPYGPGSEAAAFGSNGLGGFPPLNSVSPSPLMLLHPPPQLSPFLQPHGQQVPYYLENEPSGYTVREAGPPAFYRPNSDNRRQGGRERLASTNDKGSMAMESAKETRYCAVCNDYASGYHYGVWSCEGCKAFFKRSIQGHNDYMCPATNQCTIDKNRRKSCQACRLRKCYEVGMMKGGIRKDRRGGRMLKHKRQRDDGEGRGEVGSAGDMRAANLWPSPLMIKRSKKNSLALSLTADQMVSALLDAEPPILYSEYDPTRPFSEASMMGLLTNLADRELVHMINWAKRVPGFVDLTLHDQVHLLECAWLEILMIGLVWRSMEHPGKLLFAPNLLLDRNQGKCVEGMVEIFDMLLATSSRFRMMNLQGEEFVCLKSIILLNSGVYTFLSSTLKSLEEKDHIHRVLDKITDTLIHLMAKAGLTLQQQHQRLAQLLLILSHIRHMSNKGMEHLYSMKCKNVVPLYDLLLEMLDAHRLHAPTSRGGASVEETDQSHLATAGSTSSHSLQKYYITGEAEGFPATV
# [12] = dose 50 mg/kg (compounds per os after MNU; MNU alone i.p.)
# [13] = MFD 1000 mg/kg (MNU: MTD 100 mg/kg bwt), 5 days
# [14] = virtually screened NCI hits, Table S17, read-out: MCF-7 (IC50)
# [15] = virtually screened NCI hits, Table S17, read-out: MDA-MB-231 (IC50)
# ERβ, sequence (Q92731 whole entry): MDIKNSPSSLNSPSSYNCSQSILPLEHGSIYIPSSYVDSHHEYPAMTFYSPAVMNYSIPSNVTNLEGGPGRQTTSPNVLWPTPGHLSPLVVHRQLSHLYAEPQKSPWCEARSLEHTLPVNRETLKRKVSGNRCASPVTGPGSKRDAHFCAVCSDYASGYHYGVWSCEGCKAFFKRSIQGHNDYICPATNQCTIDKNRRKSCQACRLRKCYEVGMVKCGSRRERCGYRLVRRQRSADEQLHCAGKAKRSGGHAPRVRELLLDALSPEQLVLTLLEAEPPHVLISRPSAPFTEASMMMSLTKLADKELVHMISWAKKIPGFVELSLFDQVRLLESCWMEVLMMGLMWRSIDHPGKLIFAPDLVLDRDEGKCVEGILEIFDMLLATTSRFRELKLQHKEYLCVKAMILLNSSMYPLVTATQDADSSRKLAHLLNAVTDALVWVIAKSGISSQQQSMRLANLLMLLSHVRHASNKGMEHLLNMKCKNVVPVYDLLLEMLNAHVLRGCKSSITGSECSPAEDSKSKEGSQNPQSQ
compound,measurement,setting,value
"CC/C(=C(\c1ccc(O)cc1)c1ccc(OCCN(C)C)cc1)c1ccccc1 [Compound 4-OHT., 4-hydroxytamoxifen, reference compound]",logRBA ERβ,ERβ,1.39 ^†
same,logD at 30 min,[1],3.64
same,BIO,[2]; oral 5 mg/kg,88 ^‖
same,BIO,[2]; oral 50 mg/kg,94
same,IC50,"MCF-7 cell lines; growth inhibition, 48 h, read-out: MCF-7 (IC50 nM)",1.19 ± 0.57 nM
same,IC50,"MCF-7 cell lines; references in Table S17, read-out: MCF-7 (IC50 nM)",1.24 ± 0.32 nM
same,IC50 at 48 h,[3]; growth inhibition,> 10 nM
same,IC50 at 48 h,[3]; references in Table S17,> 100 nM
same,Cell Cycle (%) G0/G1,MCF-7 cells; 0.1 nM,"57.22 ± 0.37 *^,†,§ %"
same,Cell Cycle (%) G2/M,MCF-7 cells; 0.1 nM,"24.02 ± 0.53 *^,,†§ %"
same,Cell Cycle (%) S,MCF-7 cells; 0.1 nM,"18.76 ± 0.41 *^,†,§ %"
same,Cell Cycle (%) G0/G1,MCF-7 cells; 1 nM,"63.26 ± 0.41 *^,†,§ %"
same,Cell Cycle (%) G2/M,MCF-7 cells; 1 nM,"15.60 ± 0.15 *^,†,§ %"
same,Cell Cycle (%) S,MCF-7 cells; 1 nM,"21.14 ± 0.25 *^,†,§ %"
same,Tumor Burden (week),[4]; dose 5 mg/kg per os after MNU,"3.36 ± 0.38 *^,†,‖ week"
same,Tumor Latency (week),[4]; dose 5 mg/kg per os after MNU,7 * week
same,Tumor Volume (mm^3),[4]; dose 5 mg/kg per os after MNU,"1.88 ± 0.35 *^,†,‖ mm^3"
same,Tumor Burden (week),[4]; [12],"3.22 ± 0.21 *^,†,┴ week"
same,Tumor Latency (week),[4]; [12],"10 *^,† week"
same,Tumor Volume (mm^3),[4]; [12],"1.35 ± 0.63 *^,†,┴ mm^3"
same,IC50,[5],1.29 ± 0.43 nM
same,IC50,[6],> 100 nM
same,ALP (A/L),[7]; dose 5 mg/kg,105.32±0.31 A/L
same,ALT (A/L),[7]; dose 5 mg/kg,52.44±0.31 A/L
same,AST (U/L),[7]; dose 5 mg/kg,53.76±0.32 U/L
same,γ-GT (U/L),[7]; dose 5 mg/kg,16.54 U/L
same,ALP (A/L),[7]; dose 50 mg/kg,131.43±0.43 A/L
same,ALT (A/L),[7]; dose 50 mg/kg,59.63±0.32 A/L
same,AST (U/L),[7]; dose 50 mg/kg,58.41±0.25 U/L
same,γ-GT (U/L),[7]; dose 50 mg/kg,18.47±0.45 U/L
same,TBC,[7]; dose 5 mg/kg,23.56
same,TBC,[7]; dose 50 mg/kg,25.57
same,colon section histopathology,[13],no morphological changes
same,heart section histopathology,[13],no morphological changes
same,kidney section histopathology,[13],no morphological changes
same,liver section histopathology,[13],no morphological changes
same,lung section histopathology,[13],no morphological changes
same,spleen section histopathology,[13],no morphological changes
same,"WL after MFD (day 1, mg)","average body weight at day 1, dosing at MFD",305.84 ± 0.59 mg
same,"WL after MFD (day 5, mg)","average body weight at day 5, dosing at MFD",297.65 ± 0.39 mg
same,MFD (5 days),"maximum feasible (or tolerated) dose, 5 days per os, 5-1000 mg/kg bwt",1000 mg/kg
same,breast section histopathology,[8]; 5 mg/kg of bwt,necrosis (NEC)
same,breast section histopathology,[8]; 50 mg/kg of bwt,necrosis (NEC)
same,IC50,"MDA-MB-231 cell lines; growth inhibition, 48 h, read-out: MDA-MB-231 (IC50 nM)",37.1 ± 0.45 nM
same,IC50,"MDA-MB-231 cell lines; references in Table S17, read-out: MDA-MB-231 (IC50 nM)",37.04 ± 0.32 nM
same,CAT,[9]; dose 5 mg/kg,13.56±0.88
same,CAT,[9]; dose 50 mg/kg,20.46±0.76
same,TBARS,[9]; dose 50 mg/kg,3.63 ± 0.32 nmol/mg
same,GSH,[9]; dose 5 mg/kg,4.67 mg/g
same,GSH,[9]; dose 50 mg/kg,3.33 mg/g
same,SOD (U/mg),[9]; dose 5 mg/kg,4.87±0.72 U/mg
same,SOD (U/mg),[9]; dose 50 mg/kg,7.46±0.34 U/mg
same,TP,"[9]; total protein content, dose 50 mg/kg",47.46 g/L
same,fraction unbound at 5 mg/kg bwt,[10]; 5 mg/kg,0.0185
same,fraction unbound at 50 mg/kg bwt,[10]; 50 mg/kg,0.0252
O=C(c1ccccc1)c1ccccc1C(=O)c1ccccc1 [Compound 6145],IC50,[11],> 100 µM
same,IC50,MCF-7 cell lines; [14],93400 ± 11400 nM
same,IC50,ERα,75.5 ± 6.46 µM
same,IC50,MDA-MB-231 cell lines; [15],> 100000 nM
O=C(O)c1ccccc1-n1c2ccccc2c2ccccc21 [Compound 10211],IC50,[11],> 100 µM
same,IC50,ERα,66.9 ± 6.46 µM
same,IC50,MDA-MB-231 cell lines; [15],> 100000 nM
c1ccc(-n2c3ccccc3c3ccccc32)cc1 [Compound 10416],IC50,[11],> 100 µM
same,IC50,MCF-7 cell lines; [14],89000 ± 11400 nM
same,IC50,ERα,74.8 ± 6.46 µM
same,IC50,MDA-MB-231 cell lines; [15],> 100000 nM
O=c1c(-c2ccc(O)cc2)coc2cc(O)cc(O)c12 [Compound 36586],IC50,[11],> 100 µM
same,IC50,MCF-7 cell lines; [14],> 100000 nM
same,IC50,MDA-MB-231 cell lines; [15],> 100000 nM
COc1ccc(C(C#N)=C(c2ccccc2)c2ccccc2)cc1 [Compound 101789],IC50,[11],14.2 ± 11.4 µM
same,IC50,MCF-7 cell lines; [14],25900 ± 11400 nM
same,IC50,ERα,17.9 ± 1.34 µM
same,IC50,MDA-MB-231 cell lines; [15],> 100000 nM
